# Patent US8735398B2 (Bristol-Myers Squibb Company, priority 2009, dated 2014)
# Tested on: HCV 1b genotype
# Assay: HCV replicon assay (HCV-neo replicon cells, wild-type)
# Format: cell-based, Hepatitis C virus
# Settings: HCV 1b genotype replicon; class symbol; read-out: EC50 Range against HCV 1b
# Outline: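 Inhibition was tested in replicon-bearing cells, both wild-type HCV-neo and lines with NS5A resistance substitutions, using the O'Boyle et al. 2005 replicon method or luciferase-reporter formats.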
row,SMILES,EC50
1,"CCCC[C@H](NC(=O)Cc1ccccc1)C(=O)Nc1ccc(-c2cnc(-c3ccc(NC(=O)[C@H](CCCC)NC(=O)Cc4ccccc4)cc3)o2)cc1 [JG-17, (2S,2′S)-N,N′-(4,4′-(oxazole-2,5-diyl)bis(4,1-phenylene))bis(2-(2-phenylacetamido)hexanamide)]",100 to 999 nM
2,"CC1(C)CC(C)(C(=O)N2CCC[C@H]2C(=O)Nc2ccc(-c3cnc(-c4ccc(NC(=O)[C@@H]5CCCN5C(=O)C5(C)CC(C)(C)C(=O)N5)cc4)o3)cc2)NC1=O (stereo partly drawn) [Example D-25, (2S,2′S)-N,N′-(4,4′-(oxazole-2,5-diyl)bis(4,1-phenylene))bis(1-(2,4,4-trimethyl-5-oxopyrrolidine-2-carbonyl)pyrrolidine-2-carboxamide)]",1000 to 10000 nM

# Same assay, conditions: HCV 1b genotype replicon; class symbols; read-out: EC50 Range against HCV 1b
row,SMILES,EC50
1,"CN(C)C(Cc1ccc(Br)cc1)C(=O)N1CCC[C@H]1C(=O)Nc1ccc(-c2cnc(-c3ccc(NC(=O)[C@@H]4CCCN4C(=O)C(Cc4ccc(Br)cc4)N(C)C)cc3)o2)cc1 (stereo partly drawn) [JR-8, (2S)-N,N′-(4,4′-(oxazole-2,5-diyl)bis(4,1-phenylene))bis(1-(3-(4-bromophenyl)-2-(dimethylamino)propanoyl)pyrrolidine-2-carboxamide)]",4.57 to 99 nM
2,"CN(C)[C@H](C(=O)N1CCC[C@H]1C(=O)Nc1ccc(-c2cnc(-c3ccc(NC(=O)[C@@H]4CCCN4C(=O)[C@H]([C@H](O)c4ccsc4)N(C)C)cc3)o2)cc1)[C@H](O)c1ccsc1 [JR-16, (S,R,2S)-N,N′-(4,4′-(oxazole-2,5-diyl)bis(4,1-phenylene))bis(1-((2S,3R)-2-(dimethylamino)-3-hydroxy-3-(thiophen-3-yl)propanoyl)pyrrolidine-2-carboxamide)]",1000 to 10000 nM

# Same assay, conditions: HCV 1b genotype replicon; read-out: EC50 1b
row,SMILES,EC50
1,"CC1(C)CC(C)(C(=O)N2CCC[C@H]2C(=O)Nc2ccc(-c3cnc(-c4ccc(NC(=O)[C@@H]5CCCN5C(=O)C5(C)CC(C)(C)C(=O)N5)cc4)o3)cc2)NC1=O (stereo partly drawn) [Example D-25, (2S,2′S)-N,N′-(4,4′-(oxazole-2,5-diyl)bis(4,1-phenylene))bis(1-(2,4,4-trimethyl-5-oxopyrrolidine-2-carbonyl)pyrrolidine-2-carboxamide)]",5330 nM

# Same assay, conditions: Hepatitis C virus, HCV 1b genotype replicon; class symbol; read-out: EC50 Range against HCV 1b
row,SMILES,EC50
1,"O=C(Nc1ccc(-c2cnc(-c3ccc(NC(=O)[C@@H]4CCCN4C(=O)C(O)c4ccccn4)cc3)o2)cc1)[C@@H]1CCCN1C(=O)C(O)c1ccccn1 (stereo partly drawn) [Example D-14, (2S,2′S)-N,N′-(1,3-oxazole-2,5-diyldi-4,1-phenylene)bis(1-(hydroxy(2-pyridinyl)acetyl)-2-pyrrolidinecarboxamide)]",100 to 999 nM
2,"O=C(Nc1ccc(-c2cc(-c3ccc(NC(=O)[C@@H]4CCCN4C(=O)[C@H](O)c4ccccc4)cc3)[nH]n2)cc1)[C@@H]1CCCN1C(=O)[C@H](O)c1ccccc1 [JG-32, (2S,2′S)-N,N′-(1H-pyrazole-3,5-diyldi-4,1-phenylene)bis(1-((2R)-2-hydroxy-2-phenylacetyl)-2-pyrrolidinecarboxamide)]",< 4.57 nM
3,CC(=O)O[C@H](C(=O)N1CCC[C@H]1C(=O)Nc1ccc(-c2ccc(-c3ccc(NC(=O)[C@@H]4CCCN4C(=O)[C@@H](OC(C)=O)c4ccccc4)cc3)o2)cc1)c1ccccc1,100 to 999 nM
4,"COc1cccc2c(C(=O)N3CCC[C@H]3C(=O)Nc3ccc(-c4ccc(-c5ccc(NC(=O)[C@@H]6CCCN6C(=O)c6nc(Cl)cc7c(OC)cccc67)cc5)o4)cc3)nc(Cl)cc12 [JG-60, (2S,2′S)-N,N′-(2,5-furandiyldi-4,1-phenylene)bis(1-((3-chloro-5-methoxy-1-isoquinolinyl)carbonyl)-2-pyrrolidinecarboxamide)]",1000 to 10000 nM
5,"O=C(Nc1ccc(-c2cc(-c3ccc(NC(=O)[C@@H]4CCCN4C(=O)[C@@H](O)c4ccccc4)cc3)[nH]n2)cc1)[C@@H]1CCCN1C(=O)[C@@H](O)c1ccccc1 [JG-33, (2S,2′S)-N,N′-(1H-pyrazole-3,5-diyldi-4,1-phenylene)bis(1-((2S)-2-hydroxy-2-phenylacetyl)-2-pyrrolidinecarboxamide)]",4.57 to 99 nM
6,"CC(C)[C@@H](NC(=O)OCc1ccccc1)C(=O)Nc1ccc(-c2cnc(-c3ccc(NC(=O)[C@H](NC(=O)OCc4ccccc4)C(C)C)cc3)o2)cc1 [JG-5, dibenzyl (1,3-oxazole-2,5-diylbis(4,1-phenyleneimino((2R)-3-methyl-1-oxo-1,2-butanediyl)))biscarbamate]",1000 to 10000 nM
7,"O=C(Nc1ccc(-c2cnc(-c3ccc(NC(=O)[C@@H]4CCCN4C(=O)Cc4ccccc4)cc3)o2)cc1)[C@@H]1CCCN1C(=O)Cc1ccccc1 [JG-3, (2S,2′S)-N,N′-(1,3-oxazole-2,5-diyldi-4,1-phenylene)bis(1-(phenylacetyl)-2-pyrrolidinecarboxamide)]",< 4.57 nM
8,"O=C(Nc1ccc(-c2nc[nH]c2-c2ccc(NC(=O)[C@@H]3CCCN3C(=O)c3nc(Cl)cc4ccccc34)cc2)cc1)[C@@H]1CCCN1C(=O)c1nc(Cl)cc2ccccc12 [JG-49, (2S,2′S)-N,N′-(1H-imidazole-4,5-diyldi-4,1-phenylene)bis(1-((3-chloro-1-isoquinolinyl)carbonyl)-2-pyrrolidinecarboxamide)]",1000 to 10000 nM
9,"COc1ccccc1C(=O)N1CCC[C@H]1C(=O)Nc1ccc(-c2nnc(-c3ccc(NC(=O)[C@@H]4CCCN4C(=O)c4ccccc4OC)cc3)o2)cc1 [RK-6, (2S,2′S)-N,N′-(1,3,4-oxadiazole-2,5-diyldi-4,1-phenylene)bis(1-(2-methoxybenzoyl)-2-pyrrolidinecarboxamide)]",100 to 999 nM
10,"C[C@H](NC(=O)c1cc(Cl)cc2ccccc12)C(=O)Nc1ccc(-c2cc(-c3ccc(NC(=O)[C@H](C)NC(=O)c4cc(Cl)cc5ccccc45)cc3)[nH]n2)cc1 [OL-47, N,N′-(1H-pyrazole-3,5-diylbis(4,1-phenyleneimino((2S)-1-oxo-1,2-propanediyl)))bis(3-chloro-1-naphthamide)]",4.57 to 99 nM
11,"CC(=O)N1CCC[C@H]1C(=O)Nc1ccc(-c2cnc(-c3ccc(NC(=O)[C@@H]4C[C@@H](OC(C)(C)C)CN4C(=O)OCc4ccccc4)cc3)o2)cc1 [MS-2, benzyl (2S,4R)-2-((4-(5-(4-((((2S)-1-acetyl-2-pyrrolidinyl)carbonyl)amino)phenyl)-1,3-oxazol-2-yl)phenyl)carbamoyl)-4-tert-butoxy-1-pyrrolidinecarboxylate]",100 to 999 nM
12,"O=C(Nc1ccc(-c2nnc(-c3ccc(NC(=O)[C@@H]4CCCN4C(=O)[C@H](O)c4ccccc4)cc3)o2)cc1)[C@@H]1CCCN1C(=O)[C@H](O)c1ccccc1 [RK-16, (2S,2′S)-N,N′-(1,3,4-oxadiazole-2,5-diyldi-4,1-phenylene)bis(1-((2R)-2-hydroxy-2-phenylacetyl)-2-pyrrolidinecarboxamide)]",< 4.57 nM
13,"CC(=O)N1CCC[C@H]1C(=O)Nc1ccc(-c2nc(-c3ccc(NC(=O)[C@@H]4C=CCN4C(=O)[C@H]4CCCO4)cc3)cs2)cc1 [Example D-51, (2S)-N-[4-[2-[4-[[[(2S)-1-acetyl-2-pyrrolidinyl]carbonyl]amino]phenyl]-4-thiazolyl]phenyl]-2,5-dihydro-1-[[(2R)-tetrahydro-2-furanyl]carbonyl]-1H-pyrrole-2-carboxamide]",1000 to 10000 nM
14,"C[C@H](NC(=O)[C@@](C)(O)c1ccccc1)C(=O)Nc1ccc(-c2nnc(-c3ccc(NC(=O)[C@H](C)NC(=O)[C@@](C)(O)c4ccccc4)cc3)o2)cc1 [RK-30, (2S,2′S)-N,N′-(1,3,4-oxadiazole-2,5-diylbis(4,1-phenyleneimino((2S)-1-oxo-1,2-propanediyl)))bis(2-hydroxy-2-phenylpropanamide)]",100 to 999 nM
15,"O=C(Nc1ccc(-c2cc(-c3ccc(NC(=O)[C@@H]4CCCN4C(=O)OCc4ccccc4)cc3)[nH]n2)cc1)[C@@H]1CCCN1C(=O)OCc1ccccc1 [OL-26, (2S,2′S)-2,2′-[1H-pyrazole-3,5-diylbis(4,1-phenyleneiminocarbonyl)]bis-1-pyrrolidinecarboxylic acid, bis(phenylmethyl) ester]",4.57 to 99 nM

# Same assay, conditions: Hepatitis C virus, HCV 1b genotype replicon; class symbols; read-out: EC50 Range against HCV 1b
row,SMILES,EC50
1,"C[C@H](NC(=O)c1nc(Cl)cc2ccccc12)C(=O)Nc1ccc(-c2nnc(-c3ccc(NC(=O)[C@H](C)NC(=O)c4nc(Cl)cc5ccccc45)cc3)o2)cc1 [RK-36, N,N′-(1,3,4-oxadiazole-2,5-diylbis(4,1-phenyleneimino((2S)-1-oxo-1,2-propanediyl)))bis(3-chloro-1-isoquinolinecarboxamide)]",1000 to 10000 nM
2,"COc1ccccc1CC(=O)N1CCC[C@H]1C(=O)Nc1ccc(-c2cnc(-c3ccc(NC(=O)[C@@H]4CCCN4C(=O)Cc4ccccc4OC)cc3)o2)cc1 [XY-35, (2S,2′S)-N,N′-(1,3-oxazole-2,5-diyldi-4,1-phenylene)bis(1-((2-methoxyphenyl)acetyl)-2-pyrrolidinecarboxamide)]",100 to 999 nM
3,"CC(C)(C)O[C@H]1CN[C@H](C(=O)Nc2ccc(-c3cnc(-c4ccc(NC(=O)[C@@H]5C[C@@H](OC(C)(C)C)CN5)cc4)o3)cc2)C1 [XY-60, (2S,4R,2′S,4′R)-N,N′-(1,3-oxazole-2,5-diyldi-4,1-phenylene)bis(4-tert-butoxy-2-pyrrolidinecarboxamide)]",1000 to 10000 nM
4,"Cc1cc(CC(=O)N2C[C@H](OC(C)(C)C)C[C@H]2C(=O)Nc2ccc(-c3cnc(-c4ccc(NC(=O)[C@@H]5C[C@@H](OC(C)(C)C)CN5C(=O)Cc5cc(C)no5)cc4)o3)cc2)on1 [XY-70, (2S,4R,2′S,4′R)-N,N′-(1,3-oxazole-2,5-diyldi-4,1-phenylene)bis(4-tert-butoxy-1-((3-methyl-5-isoxazolyl)acetyl)-2-pyrrolidinecarboxamide)]",4.57 to 99 nM
5,"O=C(Nc1ccc(-c2cnc(-c3ccc(NC(=O)[C@@H]4C[C@@H](O)CN4C(=O)c4ccccc4)cc3)o2)cc1)[C@@H]1C[C@@H](O)CN1C(=O)c1ccccc1 [XY-56, (2S,4R,2′S,4′R)-N,N′-(1,3-oxazole-2,5-diyldi-4,1-phenylene)bis(1-benzoyl-4-hydroxy-2-pyrrolidinecarboxamide)]",100 to 999 nM
6,"O=C(Nc1ccc(-c2cnc(-c3ccc(NC(=O)[C@@H]4C[C@@H](O)CN4C(=O)[C@H]4CCCO4)cc3)o2)cc1)[C@@H]1C[C@@H](O)CN1C(=O)[C@H]1CCCO1 [XY-50, (2S,4R,2′S,4′R)-N,N′-(1,3-oxazole-2,5-diyldi-4,1-phenylene)bis(4-hydroxy-1-((2R)-tetrahydro-2-furanylcarbonyl)-2-pyrrolidinecarboxamide)]",1000 to 10000 nM

# Same assay, conditions: Hepatitis C virus, HCV 1b genotype replicon; read-out: EC50 1b
row,SMILES,EC50
1,"C[C@H](NC(=O)c1nc(Cl)cc2ccccc12)C(=O)Nc1ccc(-c2nnc(-c3ccc(NC(=O)[C@H](C)NC(=O)c4nc(Cl)cc5ccccc45)cc3)o2)cc1 [RK-36, N,N′-(1,3,4-oxadiazole-2,5-diylbis(4,1-phenyleneimino((2S)-1-oxo-1,2-propanediyl)))bis(3-chloro-1-isoquinolinecarboxamide)]",1000 nM
2,"CC(C)[C@@H](NC(=O)OCc1ccccc1)C(=O)Nc1ccc(-c2cnc(-c3ccc(NC(=O)[C@H](NC(=O)OCc4ccccc4)C(C)C)cc3)o2)cc1 [JG-5, dibenzyl (1,3-oxazole-2,5-diylbis(4,1-phenyleneimino((2R)-3-methyl-1-oxo-1,2-butanediyl)))biscarbamate]",10000 nM
3,"O=C(Nc1ccc(-c2nnc(-c3ccc(NC(=O)[C@@H]4CCCN4C(=O)[C@H](O)c4ccccc4)cc3)o2)cc1)[C@@H]1CCCN1C(=O)[C@H](O)c1ccccc1 [RK-16, (2S,2′S)-N,N′-(1,3,4-oxadiazole-2,5-diyldi-4,1-phenylene)bis(1-((2R)-2-hydroxy-2-phenylacetyl)-2-pyrrolidinecarboxamide)]",< 5 nM
4,"CC(=O)N1CCC[C@H]1C(=O)Nc1ccc(-c2nc(-c3ccc(NC(=O)[C@@H]4C=CCN4C(=O)[C@H]4CCCO4)cc3)cs2)cc1 [Example D-51, (2S)-N-[4-[2-[4-[[[(2S)-1-acetyl-2-pyrrolidinyl]carbonyl]amino]phenyl]-4-thiazolyl]phenyl]-2,5-dihydro-1-[[(2R)-tetrahydro-2-furanyl]carbonyl]-1H-pyrrole-2-carboxamide]",3430 nM
